Data on 34 molecules can be found in patent publication US20250221952A1, “METHODS AND COMPOSITIONS FOR LARGE MODIFICATIONS OF ATP OUTPUT BY INNER MITOCHONDRIAL MEMBRANE LATCHING” (priority 2025, published 2025).

One series has as its system mitochondrial ATP output. Briefly: Bicep curls to failure (reps-to-failure) as proxy for ATP output. The note with it: for Latching: Table 1, up-/down-latching of IMM judged by reps-to-failure; for change in reps-to-failure from baseline: 100 mg dose, baseline 11 reps. In kind it is in vivo, human. Further details: key to Latching: ↑: Up-latching is indicated by an up-arrow; ↓: down-latching by a down-arrow; —: others producing no significant effect are indicated by a dash.

For series [1] the following is noted: in vivo; cited from earlier work.

Values joined by “and” are separate entries in the source; they are usually repeats but may differ in a detail not shown here. Equal values may be shown once. “Also recorded” adds a separate entry of the source. Read-outs that look alike come from different tables or passages of the source.

Take `O=c1oc2cc(O)ccc2c2ccc(O)cc12` [Urolithin A]: the Latching result with mitochondrial ATP output was “↓”. For the molecule `OC[C@@H](O)[C@@H](O)[C@H](O)[C@@H](O)CO` [Sorbitol], the Latching result with mitochondrial ATP output is reported as “↓”.

`CC(=O)C(=O)O` [Pyruvate]: the Latching entry with mitochondrial ATP output is “—”. With `NC(=O)c1cccnc1` [nicotinamide], the “latching behaviour as described in words” value in the series on mitochondrial ATP output was “down-latchers”. On to `O=C(O)CO` [Glycolic acid], for which the reps-to-failure after dose in the series with mitochondrial ATP output (.7 g, from 14 reps (after 5 g glycerol), in about 1 hour) is reported as 28 reps. Moreover, the Latching entry in the series with mitochondrial ATP output is “↑”. As to `c12c3c4c5c1c1c6c7c2c2c8c3c3c9c4c4c%10c5c5c1c1c6c6c%11c7c2c2c7c8c3c3c8c9c4c4c9c%10c5c5c1c1c6c6c%11c2c2c7c3c3c8c4c4c9c5c1c1c6c2c3c41` [C60, fullerene C60], the subsequent reps-to-failure performance entry in the series on mitochondrial ATP output (FIG. 6 curve 624, 3 mg C60 in MCT oil taken at 49 reps after up-latchers and DHM) is “almost flat”. Consider `O=C(O)CC(O)C(=O)O` (centres unmarked) [Malic acid], for which the Latching result in the series with mitochondrial ATP output is “↑”. The molecule further showed a reps-to-failure after dose with mitochondrial ATP output (as magnesium malate, from 10 reps (after 3 g glycerol and 1 g ethyl lactate), in 2 hours) of 21 reps. Moreover, the “reps-to-failure results compared with neutralized fumaric acid in FIG. 1” value with mitochondrial ATP output (separate trials, neutralized) is “nearly identical”. Take `OCC(O)CO` [Glycerol]: in the series with mitochondrial ATP output, the “latching behaviour as described in words” value was “strong down-latcher” and the Latching result is “↓”. For the same molecule, the “reps-to-failure after being reduced” value in the series with mitochondrial ATP output (3 g, separate trials) was 11 reps and 14 reps. Also, the “reps-to-failure after being knocked down” value with mitochondrial ATP output (5 g) was determined as 14 reps. Besides, the “reps-to-failure after dose relative to baseline” value with mitochondrial ATP output (FIG. 3A point 373, 5 g, from up-latched level) is “down to baseline”. Besides, in the series on mitochondrial ATP output (FIG. 4, five grams, from 30 reps), the “reps-to-failure after dose (stabilized)” value was “about 13 reps”.

Consider `O=C(O)C(O)C(O)C(=O)O` (centres unmarked) [Tartaric acid], for which the reps-to-failure after dose with mitochondrial ATP output (2 g, from 11 reps (after 3 g glycerol)) is 21 reps. In the series on mitochondrial ATP output, the Latching result was “↑”. With `Oc1ccc(C=Cc2cc(O)cc(O)c2)cc1` [Resveratrol], the Latching result with mitochondrial ATP output is recorded as “↓”. On the same count and under the same terms, the same measure for `O=C1NS(=O)(=O)c2ccccc21` [Saccharin]: “.—”; for `OC[C@@H](O)[C@@H](O)[C@H](O)[C@H](O)CO` [Mannitol]: “—”. For the molecule `O=C(O)/C=C/C(=O)O` [Fumaric acid], in the series on mitochondrial ATP output, the “latching behaviour as described in words” value is “one of the best up-latchers” and the Latching result is “↑”. The “reps-to-failure curve compared with curve 124 of the fumaric acid/AAKG combination” value in the series with mitochondrial ATP output (FIG. 1, dosed singly, neutralized, baseline 12 reps) is “much lower”. Regarding `O=C(O)CCCCCC(=O)O` [Pimelic acid], the Latching entry with mitochondrial ATP output is on record as “↑”. Take `O=C1c2c(O)cc(O)cc2O[C@H](c2cc(O)c(O)c(O)c2)[C@H]1O` [DHM, Dihydromyricetin]: in the series on mitochondrial ATP output, the “latching behaviour as described in words” value was “down-latching”. Further, the “reps-to-failure after dosing on top of up-latching” value with mitochondrial ATP output (FIG. 9 curve 924, dosed at point 922 after lactate/AAKG/PQQ, baseline 20 reps, then recovery) is recorded as “substantially below baseline”. `O=C(O)c1cc(C(=O)O)c2c(n1)C(=O)C(=O)c1cc(C(=O)O)[nH]c1-2` [PQQ, Pyrroloquinoline quinone]: in the series on mitochondrial ATP output (FIG. 3A point 340, PQQ increased 5-fold to 100 mg, with one gram AAKG, person after shingles), the “effect on fission and fusion reps-to-failure curves” value is “near instant merger of fission and fusion lines”. For the molecule `O=C(O)CC(O)(CC(=O)O)C(=O)O` [Citric acid], in the series on mitochondrial ATP output, the “latching behaviour as described in words” value is listed as “strongest down-latchers; also recorded: strong down-latcher” and the Latching result is listed as “↓”. The same molecule yielded a reps-to-failure after dose with mitochondrial ATP output (50 mg taken alone, from 20) of 11 reps. Also, the reps-to-failure after dose in the series with mitochondrial ATP output (FIG. 11 point 1108, two grams neutralized, from baseline 22 reps, stays flat) worked out at 10 reps. Also, the “bicep curls to failure after dose” value in the series on mitochondrial ATP output (about 2 g neutralized by bicarbonate, from 24 rep baseline, at 15 and 30 minutes) is 11 reps. For the same molecule, the “half-life in the body” value in series [1] is on record as “about 5 minutes”. Turning to `O=C(O)CCCCCCC(=O)O` [Suberic acid], the Latching entry in the series on mitochondrial ATP output was “↑”. `O=C(O)c1cccnc1` [Niacin]: the “latching behaviour as described in words” value with mitochondrial ATP output is “down-latchers”.

As to `O=C(O)CCC(=O)C(=O)O` [AKG, Alpha-ketoglutarate], the “latching behaviour as described in words” value in the series on mitochondrial ATP output (in vivo) is “weak up-latcher”.

Turning to `CCCCOC(=O)C(C)O` (centres unmarked) [butyl lactate], the “latching behaviour as described in words” value in the series with mitochondrial ATP output was “strong down-latchers”. Consider `CN(CC(=O)O)C(=N)N` [Creatine], for which, in the series on mitochondrial ATP output, the “latching behaviour as described in words” value is listed as “did not latch” and the Latching entry is “—”. Turning to `O=C(O)C(O)c1ccccc1` (centres unmarked) [Mandelic acid], the reps-to-failure after dose with mitochondrial ATP output (1 g of salt, from 14 reps (after 3 g glycerol)) is recorded as 31 reps. For the same molecule, the Latching result in the series on mitochondrial ATP output is recorded as “↑”. Turning to `O=C(O)CC(=O)C(=O)O` [Oxaloacetic acid], the Latching entry with mitochondrial ATP output is “↑”.

On to `OC[C@@H](O)[C@@H](O)CO` [Erythritol], for which, in the series with mitochondrial ATP output, the “latching behaviour as described in words” value is recorded as “strong down-latchers” and the Latching entry is recorded as “↓”. In the series with mitochondrial ATP output (FIG. 6 point 630, dosed at up-latched level of about 49 reps), the reps-to-failure after dose was determined as 11 reps. Regarding `CC(C)=CCC/C(C)=C/C=C/C(C)=C/C=C/C(C)=C/C=C/C=C(C)/C=C/C=C(C)/C=C/C=C(\C)CCC=C(C)C` [Lycopene], the “bicep curls to failure after dose” value with mitochondrial ATP output (FIG. 7, 100 mg, from baseline of 6 reps, 70 minutes) turned out to be 32 reps. In addition, in the series with mitochondrial ATP output, the Latching entry is recorded as “↑”. Turning to `O=C(O)CCC(=O)O` [Succinic acid], in the series on mitochondrial ATP output, the “latching behaviour as described in words” value is recorded as “indirect up-latcher” and the Latching entry is “↑”. Besides, the “peak reps-to-failure relative to fumaric and/or malic acids” value in the series on mitochondrial ATP output (combined with AAKG and a neutralizing base) was “about half”. Also, in the series with mitochondrial ATP output (combined with AAKG and a neutralizing base, versus fumaric/malic acids), the “delay of reps-to-failure peak” value is recorded as “about 15 minutes”.

As to `COC1=C(OC)C(=O)C(C/C=C(\C)CC/C=C(\C)CC/C=C(\C)CC/C=C(\C)CC/C=C(\C)CC/C=C(\C)CC/C=C(\C)CC/C=C(\C)CC/C=C(\C)CCC=C(C)C)=C(C)C1=O` [CoQ-10], the Latching result with mitochondrial ATP output is “—”.

On to `CC(O)C(=O)O` (centres unmarked) [Lactic acid], for which, in the series with mitochondrial ATP output (FIG. 3A points 360-362, after PQQ treatments), the “reps-to-failure relative to new baseline 350” value is “above baseline 350”. In addition, the Latching result in the series with mitochondrial ATP output was “↑”. Moreover, the biological half-life result in series [1] is “around 20 minutes”.

For `O=C(O)CCCCCCCC(=O)O` [Azelaic acid], the Latching entry in the series on mitochondrial ATP output is “↑”. The reps-to-failure after dose with mitochondrial ATP output (one gram, used alone, from 13, in 30 minutes) is reported as 43 reps. Consider `O=C(O)CCCCC(=O)O` [Adipic acid], for which the reps-to-failure after dose in the series with mitochondrial ATP output (1 gram with 1 gram AAKG and sodium bicarbonate, from 11 reps, in 20 minutes) is 31 reps. The Latching result in the series on mitochondrial ATP output is “↑”. Take `CC1=C(/C=C/C(C)=C/C=C/C(C)=C/C=C/C=C(C)/C=C/C=C(C)/C=C/C2=C(C)C[C@@H](O)CC2(C)C)C(C)(C)C[C@H](O)C1` [zeaxanthin]: the “latching behaviour as described in words” value in the series on mitochondrial ATP output was “substantially non-latcher”. For the same molecule, the “maximum bicep curls to failure after dose” value in the series on mitochondrial ATP output (FIG. 7 point 706, from baseline of 9 reps, in 15 minutes, then fell back) is on record as 14 reps.

For the molecule `CN(C)c1ccc2nc3ccc(=[N+](C)C)cc-3sc2c1` [methylene blue, reference compound], the “change in reps-to-failure from baseline” value in the series on mitochondrial ATP output (at 15 minutes) and in the series with mitochondrial ATP output (at one hour) was “no change” throughout. Turning to `CCOC(=O)C(C)O` (centres unmarked) [ethyl lactate], in the series with mitochondrial ATP output, the “latching behaviour as described in words” value is recorded as “strong down-latchers”.
